Source: ChEMBL document CHEMBL1255486, “Effect of vicriviroc on the QT/corrected QT interval and central nervous system in healthy subjects” (Antimicrob Agents Chemother, 2010)

How the values were obtained:
[1] = Cmax in healthy human at 200 mg/kg, po once daily for 7 days; assay type: ADME, organism-based; design: dose 200 mg/kg, route oral; conditions: in vivo
[2] = system: Homo sapiens; experiment: Toxicity in healthy human assessed as nausea at 300 […], po administered as single dose; assay type: organism-based; design: route oral; conditions: in vivo
[3] = system: Homo sapiens; experiment: Toxicity in healthy human assessed as nausea at 200 […], po once daily for 7 days; assay type: organism-based; design: route oral; conditions: in vivo, 168 h
[4] = AUC (0 to 24 hrs) in healthy human at 200 mg/kg, po once daily for 7 days measured after 1 day of last dose; assay type: ADME, organism-based; design: time < 24 hr, dose 200 mg/kg, route oral; conditions: plasma
[5] = system: Homo sapiens; experiment: Toxicity in healthy human assessed as EEG abnormality at 300 mg/kg, po administered as single dose; assay type: organism-based; design: dose 300 mg/kg, route oral; conditions: in vivo
[6] = system: Homo sapiens; experiment: Toxicity in healthy human assessed as pollakiuria at 250 […], po once daily for 7 days; assay type: organism-based; design: route oral; conditions: in vivo, 168 h
[7] = Cmax in healthy human at 300 mg/kg, po administered as single dose after 1 day; assay type: ADME, organism-based; design: dose 300 mg/kg, route oral; conditions: in vivo
[8] = Cmax in healthy human at 150 […], po after 10 days; assay type: ADME, organism-based; design: dose 150 mg/kg, route oral; conditions: in vivo
[9] = Cmax in healthy human at 150 […], po once daily for 7 days measured after 1 day of last dose; assay type: ADME, organism-based; design: dose 150 mg/kg, route oral; conditions: in vivo
[10] = Cmax in healthy human at 30 mg/kg, po after 10 days; assay type: ADME, organism-based; design: dose 30 mg/kg, route oral; conditions: in vivo
[11] = system: Homo sapiens; experiment: Toxicity in healthy human assessed as increase in blood […] at 300 […], po once daily for 7 days; assay type: organism-based; design: route oral; conditions: in vivo, 168 h
[12] = Cmax in healthy human at 200 mg/kg, po once daily for 7 days measured after 1 day of last dose; assay type: ADME, organism-based; design: dose 200 mg/kg, route oral; conditions: in vivo
[13] = system: Homo sapiens; experiment: Toxicity in healthy human assessed as back pain at 300 mg/kg, po administered as single dose; assay type: organism-based; design: dose 300 mg/kg, route oral; conditions: in vivo
[14] = AUC (0 to infinity) in healthy human at 250 mg/kg, po administered as single dose after 1 day; assay type: ADME, organism-based; design: time infinity, dose 250 mg/kg, route oral; conditions: plasma
[15] = Tmax in healthy human at 150 […], po once daily for 7 days measured after 1 day of last dose; assay type: ADME, organism-based; design: dose 150 mg/kg, route oral; conditions: in vivo
[16] = system: Homo sapiens; experiment: Toxicity in healthy human assessed as pollakiuria at 250 […], po administered as single dose; assay type: organism-based; design: route oral; conditions: in vivo
[17] = system: Homo sapiens; experiment: Toxicity in healthy human assessed as nausea at 250 […], po administered as single dose; assay type: organism-based; design: route oral; conditions: in vivo
[18] = system: Homo sapiens; experiment: Toxicity in healthy human assessed as pollakiuria at 300 […], po administered as single dose; assay type: organism-based; design: route oral; conditions: in vivo
[19] = Tmax in healthy human at 150 […], po after 10 days; assay type: ADME, organism-based; design: dose 150 mg/kg, route oral; conditions: in vivo
[20] = Tmax in healthy human at 30 mg/kg, po after 10 days; assay type: ADME, organism-based; design: dose 30 mg/kg, route oral; conditions: in vivo
[21] = system: Homo sapiens; experiment: Toxicity in healthy human assessed as EEG abnormality at 200 mg/kg, po once daily for 7 days; assay type: organism-based; design: dose 200 mg/kg, route oral; conditions: in vivo, 168 h
[22] = system: Homo sapiens; experiment: Toxicity in healthy human assessed as fatigue at 250 […], po administered as single dose; assay type: organism-based; design: route oral; conditions: in vivo
[23] = system: Homo sapiens; experiment: Toxicity in healthy human assessed as back pain at 250 mg/kg, po once daily for 7 days; assay type: organism-based; design: dose 250 mg/kg, route oral; conditions: in vivo, 168 h
[24] = AUC (0 to 24 hrs) in healthy human at 250 mg/kg, po once daily for 7 days; assay type: ADME, organism-based; design: time < 24 hr, dose 250 mg/kg, route oral; conditions: plasma
[25] = system: Homo sapiens; experiment: Toxicity in healthy human assessed as pollakiuria at 200 […], po administered as single dose; assay type: organism-based; design: route oral; conditions: in vivo
[26] = AUC (0 to 24 hrs) in healthy human at 150 […], po once daily for 7 days; assay type: ADME, organism-based; design: time < 24 hr, dose 150 mg/kg, route oral; conditions: plasma
[27] = Cmax in healthy human at 250 mg/kg, po once daily for 7 days measured after 1 day of last dose; assay type: ADME, organism-based; design: dose 250 mg/kg, route oral; conditions: in vivo
[28] = system: Homo sapiens; experiment: Toxicity in healthy human assessed as nausea at 150 […], po once daily for 7 days; assay type: organism-based; design: route oral; conditions: in vivo, 168 h
[29] = system: Homo sapiens; experiment: Toxicity in healthy human assessed as EEG abnormality at 150 […], po once daily for 7 days; assay type: organism-based; design: dose 150 mg/kg, route oral; conditions: in vivo, 168 h
[30] = AUC (0 to 24 hrs) in healthy human at 150 […], po once daily for 7 days measured after 1 day of last dose; assay type: ADME, organism-based; design: time < 24 hr, dose 150 mg/kg, route oral; conditions: plasma
[31] = system: Homo sapiens; experiment: Toxicity in healthy human assessed as headache at 150 […], po once daily for 7 days; assay type: organism-based; design: route oral; conditions: in vivo, 168 h
[32] = Tmax in healthy human at 200 mg/kg, po once daily for 7 days; assay type: ADME, organism-based; design: dose 200 mg/kg, route oral; conditions: in vivo
[33] = system: Homo sapiens; experiment: Toxicity in healthy human assessed as EEG abnormality at 250 mg/kg, po administered as single dose; assay type: organism-based; design: dose 250 mg/kg, route oral; conditions: in vivo
[34] = system: Homo sapiens; experiment: Toxicity in healthy human assessed as puncture site pain at 300 […], po administered as single dose; assay type: organism-based; design: route oral; conditions: in vivo
[35] = Tmax in healthy human at 200 mg/kg, po once daily for 7 days measured after 1 day of last dose; assay type: ADME, organism-based; design: dose 200 mg/kg, route oral; conditions: in vivo

COC[C@@H](c1ccc(C(F)(F)F)cc1)N1CCN(C2(C)CCN(C(=O)c3c(C)ncnc3C)CC2)C[C@@H]1C [VICRIVIROC]
Cmax [1]: 949 ng/mL
Activity [2]: 13%
Activity [3]: 13%
AUC at 24 h [4]: 5390 ng·h/mL
Activity [5]: 13%
Activity [6]: 0%
Cmax [7]: 1130 ng/mL
Cmax [8]: 1900 ng/mL
Cmax [9]: 474 ng/mL
Cmax [10]: 403 ng/mL
Activity [11]: 10%
Cmax [12]: 838 ng/mL
Activity [13]: 20%
AUC(0-inf) [14]: 11000 ng·h/mL
Tmax [15]: 1.75 h
Activity [16]: 0%
Activity [17]: 0%
Activity [18]: 0%
Tmax [19]: 1.5 h
Tmax [20]: 2 h
Activity [21]: 0%
Activity [22]: 13%
Activity [23]: 20%
AUC at 24 h [24]: 8750 ng·h/mL
Activity [25]: 0%
AUC at 24 h [26]: 6060 ng·h/mL
Cmax [27]: 791 ng/mL
Activity [28]: 17%
Activity [29]: 0%
AUC at 24 h [30]: 3260 ng·h/mL
Activity [31]: 50%
Tmax [32]: 2 h
Activity [33]: 0%
Activity [34]: 17%
Tmax [35]: 1.75 h
